Columns and labels:
Type in all cases: in vivo, mice (Std:ddY, male)
[1] = system: pain threshold (tail-pressure); assay: Tail-pressure method, experiment combined with morphine antagonist (levallorphan); conditions: 10 mg/kg i.v., mean ± standard error
Experimental: (4) Experiment Combined with Morphine Antagonist
Std:ddY Strain male mice (20-25 g) were fasted for one day before the experiment, and were used. In this experiment, the tartaric acid salt of a compound of number (2) in Table 1, morphine hydrochloride and levallorphan hydrochloride of an opioid antagonist were used. The tartaric acid salt of a compound of number (2) was dissolved in 0.9% physiological saline solution at the rate of 10 mg/2 ml. Morphine hydrochloride was dissolved in 0.9% physiological saline solution at the rate of 10 mg/2 ml. Levallorphan hydrochloride was dissolved in 0.9% physiological saline solution at the rate of 1 mg/10 ml. As a control, 0.9% physiological saline solution was used. A tail-pressure apparatus was used in this experiments. Before the administration of levallorphan hydrochloride, the pain threshold was measured twice at intervals of 30 minutes and those mice indicating a pain threshold of 50 to 100 mmHg were selected and used. Levallorphan hydrochloride solution mentioned above was administered s.c. at the rate of 10 ml/kg and, 30 minutes later, the above tartaric acid salt solution compound of number (2) or morphine hydrochloride solution was injected i.v. at the rate of 2 ml/kg, respectively. Each pain threshold was measured 10, 20 and 30 minutes after an intravenous injection. In control group, 0.9% physiological saline solution was injected i.v. at the rate of 2 ml/kg at 30 minutes after s.c. administration at 10 ml/kg of 0.9% physiological saline solution. In the single administration group of levallorphan hydrochloride, levallorphan hydrochloride solution mentioned above was administered s.c. at the rate of 10 ml/kg and, 30 minutes later, 0.9% physiological saline solution was injected i.v. at the rate of 2 ml/kg. The results were described in Table 10 as an inhibition rate (%) indicating in the preceding paragraph (1).

[2] = system: carrageenin-induced paw edema; assay: Antiinflammatory activity by the carrageenin-induced hind paw edema; conditions: mouse, 30 mg/kg p.o., mean ± standard error, n = 6
Experimental: Measurement of Antiinflammatory Activity by the Carrageenin-Induced Hind Paw Edema
Std:ddY Strain male mice (20-25 g) were fasted for one day before the experiment, and were used. After test compounds shown in Table 1 was formed to a salt with tartaric acid, this salt was dissolved in sterilized and distilled water at the rate of 30 mg/10 ml to give the test compound solution. As a control, sterilized and distilled water was used. One hour after the oral administration of test compound solutions, 25 μl of λ-carrageenin suspended in 0.9% physiological saline solution (0.5 mg/25 μl) was injected s.c. under the plantar surface of the right hind paw of a mouse and 25 μl of 0.9% physiological saline solution was injected s.c. under the plantar surface of the left hind paw of the same mouse. Three hours and five hours after carrageenin injection, the […] of the paw was measured with a dial gauge calliper. To the control group, One hour after the oral administration of sterilized and distilled water at the rate of 10 ml/kg, 25 μl of λ-carrageenin (0.5 mg/25 μl) suspended in 0.9% physiological saline solution was injected s.c. under the plantar surface of the right hind paw of a mouse and 25 μl of 0.9% physiological saline solution was injected s.c. under the plantar surface of the left hind paw of the same mouse and the later operation was done in the same manner as in the test compound dosing group mentioned above. The results were described as a swelling rate (%) obtained from the following equation.
Swelling rate (%)=(R-L)×100/L
R: the thickness of the right hind paw
L: the thickness of the left hind paw

[3] = system: nociceptive response (licking); assay: Analgesic activity by the hot-plate method; conditions: mouse, 52° C. plate, solution 10 mg/10 ml, mean ± standard error
Experimental: Measurement of Analgesic Activity by the Hot-Plate Method
Std:ddY Strain male mice (20-25 g) were fasted for one day before the experiment, and were used. After compounds shown in Table 1 were formed to the tartaric acid salts, these compounds were dissolved in 0.9% physiologocal saline solution at the rate of 10 mg/10 ml, respectively and these solution were used as test compound solution. In a control, 0.9% physiological saline solution was used. Mice were placed on a cyrindric hot plate (diameter: 22 cm, height: 11 cm) made of copper which was fixed in a water bath adjusted to 52° C. so that each animal's four paws came into contact with the plate and the time taken to show the nociceptive response (licking) as an index of pain was measured. Mice showing response latency above 25 seconds were excluded from the experiment. To prevent a burn damage of mouse tissue by heating, cutoff time of 50 seconds was defined. The results were described as an inhibition rate (%) obtained from the following equation.
Inhibition rate (%)=(A-B)×100/(50-B)
A: Response latency (seconds) after the administration of test compound solution
B: Response latency (seconds) before the administration of test compound solution

[4] = system: pain threshold (tail-pressure); assay: Analgesic activity by the tail-pressure method (s.c.); conditions: mouse, 10 mg/10 ml at 10 ml/kg s.c., 1 hour after administration, mean ± standard error
Experimental: (1) Measurement of Analgesic Activity by the Tail-Pressure Method
Std:ddY Strain male mice (20-25 g) were fasted for one day before the experiment, and were used. After test compounds shown in Table 1 was formed to a salt with tartaric acid, this salt was dissolved in 0.9% physiological saline solutions at the rate of 10 mg/10 ml to give the test compoun d solution . As a control, 0.9% physiological saline solution was used. A tail-pressure apparatus was used in this experiments. Before the administration of test compounds, the pain threshold was measured twice at intervals of 30 minutes and those mice indicating a pain threshold of 50 to 100 mmHg were selected and used. The pain threshold of each mouse was measured at 1 hour after test compound solution mentioned above was administered at 10 ml/kg, s.c. 0.9% Physiological saline solution as a control was administered at 10 ml/kg, s.c . The results were described as an inhibition rate (%) obtained from the following equation. Cutoff level of pressure was defined to be 230 mmHg for the prevention of the damage of mouse tail.
Inhibition rate (%)=(A-B)×100/(C-B)
A: Pain threshold (mmHg) after the administration of test compound solution
B: Pain threshold (mmHg) before the administration of test compound solution
C: Cutoff pressure (230 mmHg)

**Q.** How did the Inhibition rate ([1]; with levallorphan 1 mg/kg s.c. 30 minutes before, 10 min) turn out when `CCN1CC2(COC)C(O)CC(OC)C34C5CC6(O)C(OC)C(OC(C)=O)C(O)(C5C6OC(=O)c5ccc(Cl)cc5)C(C(OC)C23)C14` (stereo not shown) [(2), 15-O-acetyl-14-O-p-chlorobenzoylaconine] was run?
**A.** 86 ± 25%

**Q.** And the Inhibition rate ([1]; with levallorphan 1 mg/kg s.c. 30 minutes before, 20 min)?
**A.** 77 ± 14%

**Q.** What about the Inhibition rate ([1]; with levallorphan 1 mg/kg s.c. 30 minutes before, 30 min) of the same compound?
**A.** 67 ± 22%

**Q.** What about the Inhibition rate ([1]; without levallorphan, 10 min) of the same compound?
**A.** 85 ± 15%

**Q.** And the Inhibition rate ([1]; without levallorphan, 20 min)?
**A.** 80 ± 20%

**Q.** What about the Inhibition rate ([1]; without levallorphan, 30 min) of the same compound?
**A.** 65 ± 21%

**Q.** What about the Swelling rate ([2]; 3 hour) of the same compound?
**A.** 40 ± 9%

**Q.** And the Swelling rate ([2]; 5 hour)?
**A.** 46 ± 9%

**Q.** And the “Inhibition rate (hot-plate method)” value [3]?
**A.** 76 ± 11%

**Q.** And the “Inhibition rate (tail-pressure method)” value [4]?
**A.** 43 ± 10%
